For 19 compounds, Ki and IC50 results are on record in patent US20230203041A1, “ANTAGONISTS OF THE ADENOSINE A2A RECEPTOR” (AdoRx Therapeutics Limited, priority 2020, published 2023).

In assay [1] the target is T1, human Adenosine A2a receptor (Homo sapiens, UniProt P29274).
T1 construct: expressed in transfected cells; host or cells: CHO cell membranes
Put plainly: Adenosine receptor TR-FRET binding assay (CA200645 displacement), A2a. To be noted: 100 nM CA200645, CHO cell membranes, 2 hours at room temperature. On the technique in general: Time-resolved FRET reads energy transfer from a long-lived donor to a nearby acceptor.

For assay [2], the target named is T2, human Adenosine A2b receptor (Homo sapiens, UniProt P29275).
T2 construct: expressed in transfected cells; host or cells: CHO cell membranes
T2 sequence (P29275 1-332): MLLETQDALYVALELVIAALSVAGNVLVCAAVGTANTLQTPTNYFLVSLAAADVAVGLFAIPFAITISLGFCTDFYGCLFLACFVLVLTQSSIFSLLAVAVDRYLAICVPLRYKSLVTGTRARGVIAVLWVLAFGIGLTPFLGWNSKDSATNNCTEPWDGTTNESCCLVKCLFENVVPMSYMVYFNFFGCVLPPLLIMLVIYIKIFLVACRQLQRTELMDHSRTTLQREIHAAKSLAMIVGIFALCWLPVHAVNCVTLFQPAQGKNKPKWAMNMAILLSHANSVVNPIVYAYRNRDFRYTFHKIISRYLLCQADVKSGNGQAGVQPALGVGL
The assay can be described thus: Adenosine receptor TR-FRET binding assay (CA200645 displacement), A2b. To be noted: 30 nM CA200645, CHO cell membranes, 2 hours at room temperature.

The next assay concerns human PBMCs. Put plainly: CD3/CD28 stimulated IL-2 release NECA reversal assay in human PBMCs.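 Note: dose-response as % inhibition where 100% equals no-NECA control wells with CD3/CD28.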 It counts as cell-based. The conditions noted are these: PBMC, CD3/CD28 antibody stimulated, 1 uM NECA, 24 hours, IL-2 in culture supernatant. On the procedure: Blood is drawn from healthy volunteers using sodium citrate as the anticoagulant (0.3% final concentration). After centrifugation of the blood over Histopaque-1077, PBMCs are collected from the Histopaque/plasma interface and washed twice in PBS (300 g for 10 mins at room temp). Cells are plated at 50,000 cells/well in 150 μl RPMI/10% FCS in 96-well cell culture plates that have been precoated with 1 ug/ml CD3 antibody. 50 μl diluted compound mix is added to the cells, to obtain final concentrations of 1 ug/ml CD28 antibody, 1 uM NECA and 0.003-10 μM adenosine receptor antagonist. Assay plates are incubated for 24 hours at 37° C. in a humidified incubator. Culture supernatant is tested for IL-2 levels using the human IL-2 Tissue Culture Kit (Meso Scale Discovery).

The subject of assay [3] is CD8+ T cells in human whole blood. Put plainly: Measurement of pCREB in CD8+ T cells in human whole blood. Type of assay: cell-based. To be noted: T-cell, 1 h; heparinised human whole blood, rolipram, 3 μM NECA, 60 min, phospho-CREB in CD8+ T cells by FACS. On the procedure: Heparinised human whole blood was pre-incubated at 37° C. with serial dilutions of A2a antagonists for 20 min. and the phosphodiesterase inhibitor rolipram to amplify the pCREB response. The adenosine receptor agonist NECA is then added at a final concentration of 3 μM and following a 60 min incubation the blood is fixed and red blood cells lysed. White blood cells are isolated, permeabilized and stained with directly conjugated fluorescent antibodies to phospho-CREB (Alexa Fluor 488) and CD8 (Alexa Fluor 647) and the level of phospho-CREB in CD8+ T cells is measured by FACS using a BD Accuri C6 Flow Cytometer.
On the technique in general: A flow cytometer gives signals particle by particle.

Assay [4] concerns the target T3, human Adenosine A1 receptor (Homo sapiens, UniProt P30542).
T3 sequence (P30542 1-326): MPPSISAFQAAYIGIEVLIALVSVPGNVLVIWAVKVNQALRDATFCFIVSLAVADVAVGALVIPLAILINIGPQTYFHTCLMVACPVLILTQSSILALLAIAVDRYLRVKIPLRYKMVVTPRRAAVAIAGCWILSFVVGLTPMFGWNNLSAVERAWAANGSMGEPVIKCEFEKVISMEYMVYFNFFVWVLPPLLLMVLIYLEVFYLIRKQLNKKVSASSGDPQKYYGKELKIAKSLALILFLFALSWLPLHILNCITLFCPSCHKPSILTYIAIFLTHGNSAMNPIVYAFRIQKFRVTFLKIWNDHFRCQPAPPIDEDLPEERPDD
Put plainly: Adenosine receptor TR-FRET binding assay (CA200645 displacement), A1.

The target in assay [5] is T4, human Adenosine A3 receptor (Homo sapiens, UniProt P0DMS8).
T4 sequence (P0DMS8 1-318): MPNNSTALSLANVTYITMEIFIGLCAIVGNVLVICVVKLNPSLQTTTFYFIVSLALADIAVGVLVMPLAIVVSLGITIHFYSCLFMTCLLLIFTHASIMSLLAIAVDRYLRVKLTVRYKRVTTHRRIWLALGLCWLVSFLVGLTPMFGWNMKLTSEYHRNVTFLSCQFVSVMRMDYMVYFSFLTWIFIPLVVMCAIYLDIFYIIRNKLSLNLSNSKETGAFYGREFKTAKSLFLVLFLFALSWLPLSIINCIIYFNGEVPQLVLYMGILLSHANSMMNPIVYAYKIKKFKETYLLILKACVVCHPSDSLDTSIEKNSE
Put plainly: Adenosine receptor TR-FRET binding assay (CA200645 displacement), A3.

T1 sequence (P29274 whole entry): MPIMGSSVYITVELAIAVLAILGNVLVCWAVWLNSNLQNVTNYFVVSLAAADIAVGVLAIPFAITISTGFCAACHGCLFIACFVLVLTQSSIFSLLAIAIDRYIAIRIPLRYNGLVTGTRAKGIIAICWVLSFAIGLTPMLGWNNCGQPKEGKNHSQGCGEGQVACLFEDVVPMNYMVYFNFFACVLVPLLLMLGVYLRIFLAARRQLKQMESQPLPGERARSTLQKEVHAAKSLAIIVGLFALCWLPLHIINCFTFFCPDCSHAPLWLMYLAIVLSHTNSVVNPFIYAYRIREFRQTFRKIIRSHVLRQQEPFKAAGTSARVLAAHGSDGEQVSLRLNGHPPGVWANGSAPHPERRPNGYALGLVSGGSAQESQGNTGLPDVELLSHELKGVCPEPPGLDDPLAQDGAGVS

In general, Ki refers to the equilibrium dissociation constant of an inhibitor or competing ligand from its target. Read a low Ki as a stronger hold on the target. As a reminder, the IC50 is the concentration that inhibits the measured activity by half. Regarding `N#Cc1cccc(-c2nn3ccc(N)nc3c2-c2ccncc2)c1` [Example 1, 3-[5-Amino-3-(4-pyridyl)pyrazolo[1,5-a]pyrimidin-2-yl]benzonitrile], the inhibitory constant (Ki) was determined as 2.1 nM in assay [1], 2 nM in assay [2] and 3 nM in assay [4]. Further, the 50% inhibitory concentration (IC50) worked out at 305 nM with human PBMCs and 2010 nM in assay [3].

For the compound `Cc1cc(-c2c(-c3cccc(C#N)c3)nn3ccc(N)nc23)cc(Cl)n1` [Example 1.4, 3-[5-Amino-3-(2-chloro-6-methyl-4-pyridyl)pyrazolo[1,5-a]pyrimidin-2-yl]benzonitrile], the inhibition constant Ki is 2.6 nM in assay [1], 4 nM in assay [2], 66 nM in assay [4] and above 1000 nM in assay [5]. Moreover, the IC50 in the assay with human PBMCs was determined as 37 nM; in assay [3], 590 nM.

In the case of `Cc1cc(-c2c(-c3cccc(C#N)c3)nn3ccc(N)nc23)cc(C)n1` [Example 1.6, 3-[5-amino-3-(2,6-dimethyl-4-pyridyl)pyrazolo[1,5-a]pyrimidin-2-yl]benzonitrile], the Ki in assay [1] is 2.2 nM; in assay [2], 9 nM; in assay [4] it was 37 nM; in assay [5], above 1000 nM. Moreover, the IC50 with human PBMCs was 57 nM; in assay [3] it was 250 nM.

With `Cc1cc(-c2c(-c3cccc(C#N)c3)nn3ccc(NCC(C)(C)O)nc23)cc(Cl)n1` [Example 2, 3-[3-(2-Chloro-6-methyl-4-pyridyl)-5-[(2-hydroxy-2-methyl-propyl)amino]pyrazolo[1,5-a]pyrimidin-2-yl]benzonitrile], the inhibition constant Ki in assay [1] is 3.9 nM; in assay [2] it was 67 nM; in assay [4] it was 366 nM; in assay [5] it was above 1000 nM. In addition, the IC50 in the assay on human PBMCs came out at 84 nM; in assay [3], 420 nM.

On to `Cc1cc(-c2c(-c3cccc(C#N)c3)nn3ccc(NC45CC(O)(C4)C5)nc23)cc(Cl)n1` [Example 2.1], for which the Ki in assay [1] was 0.4 nM; in assay [2], 3 nM; in assay [4] it was 21 nM; in assay [5] it was above 1000 nM. Also, the IC50 in the assay with human PBMCs was 12 nM; in assay [3] it was 1440 nM.

Consider `Cc1cc(-c2c(-c3cccc(C#N)c3)nn3ccc(N4CCOC[C@H]4C(=O)O)nc23)cc(Cl)n1` [Example 2.3], for which the inhibitory constant (Ki) stood at 0.6 nM in assay [1], 4 nM in assay [2], 21 nM in assay [4] and 1280 nM in assay [5]. Besides, the results for the half-inhibitory concentration (IC50) (in the assay with human PBMCs; in assay [3]) were 12 nM and 1250 nM, respectively.

With `Cc1cc(-c2c(-c3cccc(C#N)c3)nn3ccc(N4CCO[C@@H](C(=O)O)C4)nc23)cc(Cl)n1` [Example 2.24], the inhibition constant Ki was 6.9 nM in assay [1], 58 nM in assay [2] and 255 nM in assay [4]. The half-maximal inhibitory concentration (IC50) with human PBMCs is 92 nM; in assay [3], 2760 nM.

As to `Cc1cc(-c2c(-c3cccc(C#N)c3)nn3ccc(N[C@H](C)CO)nc23)cc(Cl)n1` [Example 3.3], the inhibition constant Ki in assay [1] was 0.3 nM; in assay [2], 2 nM; in assay [5], above 1000 nM. For the same compound, the IC50 turned out to be 1 nM in the assay with human PBMCs and 210 nM in assay [3].

For the compound `COCC(C)(C#N)NC(=O)c1ccn2nc(-c3cccc(C#N)c3)c(-c3cc(C)nc(Cl)c3)c2n1` (stereo not shown) [Example 6.11, 3-(2-Chloro-6-methyl-4-pyridyl)-N-(1-cyano-2-methoxy-1-methyl-ethyl)-2-(3-cyanophenyl)pyrazolo[1,5-a]pyrimidine-5-carboxamide], the Ki in assay [1] came to 0.1 nM; in assay [2], 3 nM; in assay [4] it was 32 nM; in assay [5], 379 nM. Further, in assay [3], the concentration for half-maximal inhibition (IC50) amounted to 20 nM.

In the case of `Cc1cc(-c2c(-c3cccc(C#N)c3)nn3ccc(C(=O)NC(C)(C)C)nc23)cc(N)n1` [Example 91, 3-(2-Amino-6-methyl-4-pyridyl)-N-tert-butyl-2-(3-cyanophenyl)pyrazolo [1,5-a]pyrimidine-5-carboxamide], the inhibition constant Ki in assay [1] was 0.2 nM; in assay [2], 71 nM; in assay [4] it was 102 nM; in assay [5], 1040 nM. In assay [3], the IC50 was 340 nM.

For `Cc1cc(-c2c(-c3cccc(C#N)c3)nn3ccc(C(=O)N[C@H](C)C(C)(C)O)nc23)cc(C)n1` [Example 92.10], the inhibition constant Ki is 0.5 nM in assay [1], 117 nM in assay [2], 591 nM in assay [4] and above 1000 nM in assay [5]. Besides, the IC50 in assay [3] was 150 nM.

Take `Cc1cc(-c2c(-c3cccc(C#N)c3)nn3ccc(C(=O)NOCC(C)(C)O)nc23)cc(C)n1` [Example 92.11]: the Ki was 1.5 nM in assay [1], 21 nM in assay [2], 217 nM in assay [4] and above 1000 nM in assay [5]. This compound also came in with an IC50 in assay [3] of 2100 nM.

For the compound `Cc1cc(-c2c(-c3cccc(C#N)c3)nn3ccc(C(=O)N[C@@H]4COC[C@]4(C)O)nc23)cc(C)n1` [Example 92.12], the Ki in assay [1] is 0.8 nM; in assay [2] it was 44 nM; in assay [4], 274 nM; in assay [5] it was above 1000 nM. The midpoint of inhibition in assay [3], the IC50, lay at 150 nM.

Consider `Cc1cc(-c2c(-c3cccc(C#N)c3)nn3ccc(C(=O)N[C@@H]4COC[C@@]4(C)O)nc23)cc(C)n1` [Example 92.13], for which the Ki is 1 nM in assay [1], 101 nM in assay [2], 282 nM in assay [4] and above 1000 nM in assay [5]. Besides, in assay [3], the IC50 amounted to 100 nM.

As for `Cc1cc(-c2c(-c3cccc(C#N)c3)nn3ccc(C(=O)NCC4CCCN(C)C4=O)nc23)cc(C)n1` (stereo not shown) [Example 92.14], the inhibitory constant (Ki) is 0.4 nM in assay [1], 10 nM in assay [2], 79 nM in assay [4] and above 1000 nM in assay [5]. This compound also yielded a half-inhibitory concentration (IC50) in assay [3] of 60 nM.

On to `Cc1cc(-c2c(-c3cccc(C#N)c3)nn3ccc(C(=O)NCC4(C)COC(=O)N4)nc23)cc(C)n1` (stereo not shown) [Example 92.21], for which the Ki in assay [1] is 0.7 nM; in assay [2], 17 nM; in assay [4] it was 288 nM; in assay [5], above 1000 nM. For the same compound, the half-maximal inhibitory concentration (IC50) in assay [3] was 110 nM.

For the compound `Cc1cc(-c2c(-c3cccc(C#N)c3)nn3ccc(C(=O)N[C@H]4CC[C@](C)(O)CC4)nc23)cc(C)n1` [Example 92.22], the Ki in assay [1] is 0.6 nM; in assay [2] it was 29 nM; in assay [4], 204 nM; in assay [5] it was above 1000 nM. In assay [3], the IC50 stood at 370 nM.

With `Cc1cc(-c2c(-c3cccc(C#N)c3)nn3ccc(C(=O)N[C@H]4C[C@@](C)(O)C4)nc23)cc(C)n1` [Example 92.24], the inhibition constant (Ki) in assay [1] was 1.3 nM; in assay [2] it was 23 nM; in assay [4] it was 347 nM; in assay [5] it was above 1000 nM. This compound had an IC50 in assay [3] of 330 nM.

`Cc1cc(-c2c(-c3cccc(C#N)c3)nn3ccc(C(=O)N[C@H]4CN(C)C[C@H]4O)nc23)cc(C)n1` [Example 92.34]: the Ki in assay [1] is 1.5 nM; in assay [2], 32 nM; in assay [4], 428 nM; in assay [5], above 1000 nM. In assay [3], this compound came in with a half-maximal inhibitory concentration (IC50) of 140 nM.
